Values of other authors as cited in patent publication US20130324521A1, “IMPLANT FOR TREATING OR PREVENTING AN ANEURYSM” (priority 2010, published 2013).

## Cn1cncc1[C@@](N)(c1ccc(Cl)cc1)c1ccc2c(c1)c(-c1cccc(Cl)c1)cc(=O)n2C [R11577, Tipifarnib]
Oral administration
  tolerability of oral administration: tolerated well
Use as accredited therapeutic agent in oncological therapy
  toxicity: low toxicity
